Source: ChEMBL document CHEMBL5584329, “Development of new dehydrocostuslactone derivatives for treatment of atopic dermatitis via inhibition of the NF-κB signaling pathway” (RSC Med Chem, 2024)
Values belong to the compound of their own block, whether it stands above or below them. Active and inactive are the calls of the source. The calls are words filed in the database; no cut-off is given here.

Experiments:
[1] = Cytotoxicity against mouse RAW264.7 cells assessed as inhibition of cell viability at 20 uM by MTT assay relative to control; format: toxicity, cell-based; settings: read-out: INH
[2] = Cytotoxicity against mouse RAW264.7 cells assessed as inhibition of cell viability by MTT assay relative to control; format: toxicity, cell-based
[3] = test system: RAW264.7; assay: Inhibition of LPS-induced NO production in mouse RAW264.7 cells at 20 uM preincubated for 2 hrs followed by LPS addition and measured after 24 hrs by Griess assay relative to control; format: functional; settings: time 26 hrs
[4] = test system: RAW264.7; assay: Inhibition of LPS-induced NO production in mouse RAW264.7 cells preincubated for 2 hrs followed by LPS addition and measured after 24 hrs by Griess assay relative to control; format: functional, cell-based
[5] = test system: Mus musculus; assay: Antiinflammatory activity against MC093-induced atopic dermatitis BALB/c mouse model assessed as reduction in epidermal thickness of ear administered starting from day 4 to 10 after MC093-stimulation by H and E staining assay; format: functional, organism-based
[6] = test system: Mus musculus; assay: Antiinflammatory activity against MC093-induced atopic dermatitis BALB/c mouse model assessed as reduction in inflammatory cell infiltration in ear administered starting from day 4 to 10 after MC093-stimulation by H and E staining assay; format: functional, organism-based
[7] = test system: Mus musculus; assay: Antiinflammatory activity against MC093-induced atopic dermatitis BALB/c mouse model assessed as reduction in IgE level in serum at 50 to 100 mg/kg, IG administered starting from day 4 to 10 after MC093-stimulation; format: functional, organism-based; settings: dose 50-100 mg/kg, time 7.0 day
[8] = test system: Mus musculus; assay: Antiinflammatory activity against MC093-induced atopic dermatitis BALB/c mouse model assessed as reduction in scratching latency at 50 to 100 mg/kg, IG administered starting from day 4 to 10 and measured after 30 mins of MC093-stimulation; format: functional, organism-based; settings: dose 50-100 mg/kg, time 7.0 day
[9] = test system: Mus musculus; assay: In vivo inhibition of NFkappaB signalling pathway in IG dosed MC093-induced atopic dermatitis BALB/c mouse model assessed as reduction in IkappaB-alpha phosphorylation level in ear skin starting from day 4 to 10 after MC093-stimulation by Western blot analysis; format: functional, organism-based; settings: dose 50-100 mg/kg, time 7.0 day
[10] = test system: Mus musculus; assay: In vivo inhibition of MAPK signalling pathway in MC093-induced atopic dermatitis BALB/c mouse model assessed as reduction in p-JNK/JNK ratio in ear skin at 50 to 100 mg/kg, IG administered starting from day 4 to 10 after MC093-stimulation by Western blot analysis; format: functional, organism-based; settings: dose 50-100 mg/kg, time 7.0 day
[11] = test system: Mus musculus; assay: Antiinflammatory activity against MC093-induced atopic dermatitis BALB/c mouse model assessed as reduction in inflammatory cell infiltration in ear at 50 to 100 mg/kg, IG administered starting from day 4 to 10 after MC093-stimulation by H and E staining assay; format: functional, organism-based; settings: dose 50-100 mg/kg, time 7.0 day
[12] = test system: Mus musculus; assay: Antiinflammatory activity against MC093-induced atopic dermatitis BALB/c mouse model assessed as reduction in number of scratches at 50 to 100 mg/kg, IG administered starting from day 4 to 10 and measured after 30 mins of MC093-stimulation; format: functional, organism-based; settings: dose 50-100 mg/kg, time 7.0 day
[13] = test system: Mus musculus; assay: In vivo inhibition of […] signalling pathway in MC093-induced atopic dermatitis BALB/c mouse model assessed as reduction in IkappaB-alpha phosphorylation level in ear skin at 50 to 100 mg/kg, IG administered starting from day 4 to 10 after MC093-stimulation by immunohistochemistry analysis; format: functional, organism-based; settings: dose 50-100 mg/kg, time 7.0 day
[14] = test system: Mus musculus; assay: Antiinflammatory activity against MC093-induced atopic dermatitis BALB/c mouse model assessed as reduction in IL-13 level in serum at 50 to 100 mg/kg, IG administered starting from day 4 to 10 after MC093-stimulation; format: functional, organism-based; settings: dose 50-100 mg/kg, time 7.0 day
[15] = test system: Mus musculus; assay: In vivo inhibition of NFkappaB signalling pathway in IG dosed MC093-induced atopic dermatitis BALB/c mouse model assessed as reduction in P65 phosphorylation level in ear skin starting from day 4 to 10 after MC093-stimulation by Western blot analysis; format: functional, organism-based; settings: dose 50-100 mg/kg, time 7.0 day
[16] = test system: Mus musculus; assay: In vivo inhibition of MAPK signalling pathway in MC093-induced atopic dermatitis BALB/c mouse model assessed as reduction in p-P38/P38 ratio in ear skin at 50 to 100 mg/kg, IG administered starting from day 4 to 10 after MC093-stimulation by Western blot analysis; format: functional, organism-based; settings: dose 50-100 mg/kg, time 7.0 day
[17] = test system: Mus musculus; assay: Antiinflammatory activity against MC093-induced atopic dermatitis BALB/c mouse model assessed as reduction in ear swelling at 50 to 100 mg/kg, IG administered starting from day 4 to 10 after MC093-stimulation; format: functional, organism-based; settings: dose 50-100 mg/kg, time 7.0 day
[18] = test system: Mus musculus; assay: Antiinflammatory activity against MC093-induced atopic dermatitis BALB/c mouse model assessed as reduction in HIS level in serum at 50 to 100 mg/kg, IG administered starting from day 4 to 10 after MC093-stimulation; format: functional, organism-based; settings: dose 50-100 mg/kg, time 7.0 day
[19] = test system: Mus musculus; assay: Antiinflammatory activity against MC093-induced atopic dermatitis BALB/c mouse model assessed as reduction in weight of ear at 50 to 100 mg/kg, IG administered starting from day 4 to 10 after MC093-stimulation; format: functional, organism-based; settings: dose 50-100 mg/kg, time 7.0 day
[20] = test system: Mus musculus; assay: Antiinflammatory activity against MC093-induced atopic dermatitis BALB/c mouse model assessed as reduction in IL-33 level in serum at 50 to 100 mg/kg, IG administered starting from day 4 to 10 after MC093-stimulation; format: functional, organism-based; settings: dose 50-100 mg/kg, time 7.0 day
[21] = biological target: T1, Inhibitor of nuclear factor kappa-B kinase subunit alpha (Mus musculus) (UniProt Q60680); assay: Inhibition of IkappaB-alpha phosphorylation in LPS induced mouse RAW264.7 cells preincubated for 2 hrs followed by LPS addition and measured after 24 hrs by Western blot analysis; format: cell-based; settings: dose 2.5-10 µmol, time 26.0 hrs
T1 sequence (whole entry): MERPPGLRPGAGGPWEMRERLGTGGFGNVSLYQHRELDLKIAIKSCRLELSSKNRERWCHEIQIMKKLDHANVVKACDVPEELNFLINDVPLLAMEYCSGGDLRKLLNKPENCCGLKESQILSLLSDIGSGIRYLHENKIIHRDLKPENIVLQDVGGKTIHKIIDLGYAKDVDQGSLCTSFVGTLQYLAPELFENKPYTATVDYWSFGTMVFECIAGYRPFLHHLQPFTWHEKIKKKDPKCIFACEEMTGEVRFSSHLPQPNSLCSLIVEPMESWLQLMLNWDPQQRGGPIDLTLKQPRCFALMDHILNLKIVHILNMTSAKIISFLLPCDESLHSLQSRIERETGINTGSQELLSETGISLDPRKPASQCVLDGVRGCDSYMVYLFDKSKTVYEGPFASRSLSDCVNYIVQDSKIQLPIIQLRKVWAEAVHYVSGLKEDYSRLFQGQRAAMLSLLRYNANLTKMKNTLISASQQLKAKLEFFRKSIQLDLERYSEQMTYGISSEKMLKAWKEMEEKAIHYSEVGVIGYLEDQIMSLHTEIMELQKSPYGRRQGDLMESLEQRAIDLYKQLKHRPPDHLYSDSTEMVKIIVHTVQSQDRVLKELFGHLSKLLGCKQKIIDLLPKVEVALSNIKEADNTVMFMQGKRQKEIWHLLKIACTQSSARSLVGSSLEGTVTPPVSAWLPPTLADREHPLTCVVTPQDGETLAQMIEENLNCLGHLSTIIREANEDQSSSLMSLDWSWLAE

[22] = test system: Mus musculus; assay: Antiinflammatory activity against MC093-induced atopic dermatitis BALB/c mouse model assessed as reduction in IL-5 level in serum at 50 to 100 mg/kg, IG administered starting from day 4 to 10 after MC093-stimulation; format: functional, organism-based; settings: dose 50-100 mg/kg, time 7.0 day
[23] = test system: Mus musculus; assay: Antiinflammatory activity against MC093-induced atopic dermatitis BALB/c mouse model assessed as reduction in epidermal thickness of ear at 50 to 100 mg/kg, IG administered starting from day 4 to 10 after MC093-stimulation by H and E staining assay; format: functional, organism-based; settings: dose 50-100 mg/kg, time 7.0 day
[24] = test system: Mus musculus; assay: In vivo inhibition of MAPK signalling pathway in MC093-induced atopic dermatitis BALB/c mouse model assessed as reduction in p-ERK/ERK ratio in ear skin at 50 to 100 mg/kg, IG administered starting from day 4 to 10 after MC093-stimulation by Western blot analysis; format: functional, organism-based; settings: dose 50-100 mg/kg, time 7.0 day
[25] = test system: Mus musculus; assay: Antiinflammatory activity against MC093-induced atopic dermatitis BALB/c mouse model assessed as reduction in IL-4 level in serum at 50 to 100 mg/kg, IG administered starting from day 4 to 10 after MC093-stimulation; format: functional, organism-based; settings: dose 50-100 mg/kg, time 7.0 day
[26] = biological target: Transcription factor p65 (Mus musculus) (UniProt Q04207); assay: Inhibition of P65 phosphorylation in LPS induced mouse RAW264.7 cells preincubated for 2 hrs followed by LPS addition and measured after 24 hrs by Western blot analysis; format: cell-based; settings: dose 2.5-10 µmol, time 26.0 hrs
[27] = test system: Mus musculus; assay: In vivo inhibition of […] signalling pathway in MC093-induced atopic dermatitis BALB/c mouse model assessed as reduction in P65 phosphorylation level in ear skin at 50 to 100 mg/kg, IG administered starting from day 4 to 10 after MC093-stimulation by immunohistochemistry analysis; format: functional, organism-based; settings: dose 50-100 mg/kg, time 7.0 day
[28] = biological target: MAP kinase p38 (Mus musculus) (UniProt P47811+O08911+Q9WUI1+Q9Z1B7); assay: Inhibition of P38 phosphorylation in LPS-induced mouse RAW264.7 cells preincubated for 2 hrs followed by LPS addition and measured after 24 hrs by Western blot analysis; format: cell-based; settings: dose 2.5-10 µmol, time 26.0 hrs
[29] = test system: Mus musculus; assay: Antiinflammatory activity against MC093-induced atopic dermatitis BALB/c mouse model assessed as reduction in TSLP level in serum at 50 to 100 mg/kg, IG administered starting from day 4 to 10 after MC093-stimulation; format: functional, organism-based; settings: dose 50-100 mg/kg, time 7.0 day

Chain of Transcription factor p65 (Mus musculus) (Q04207 whole entry): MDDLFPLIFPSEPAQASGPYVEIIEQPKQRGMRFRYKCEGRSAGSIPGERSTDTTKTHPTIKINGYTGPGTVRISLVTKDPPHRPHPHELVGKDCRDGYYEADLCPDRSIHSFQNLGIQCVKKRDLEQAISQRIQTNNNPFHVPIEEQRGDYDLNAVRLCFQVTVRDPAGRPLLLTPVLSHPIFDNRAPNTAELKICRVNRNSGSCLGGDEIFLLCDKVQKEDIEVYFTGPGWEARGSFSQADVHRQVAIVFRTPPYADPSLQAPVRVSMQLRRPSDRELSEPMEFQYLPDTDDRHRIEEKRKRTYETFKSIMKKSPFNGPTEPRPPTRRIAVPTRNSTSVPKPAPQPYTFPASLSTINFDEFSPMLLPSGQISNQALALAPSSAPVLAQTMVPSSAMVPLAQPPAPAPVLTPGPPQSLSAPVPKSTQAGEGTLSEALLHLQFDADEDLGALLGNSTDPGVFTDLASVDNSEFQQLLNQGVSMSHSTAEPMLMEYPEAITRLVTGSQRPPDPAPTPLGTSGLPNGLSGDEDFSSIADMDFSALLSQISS

IC50 [4]: 7.72 µM
SMILES: C=C1CC[C@H]2C(=C)CC[C@H]3C(CN(CCNS(=O)(=O)c4ccc(C)cc4)S(=O)(=O)c4ccc(C)cc4)C(=O)O[C@@H]3[C@@H]12 (stereo not given in full)
cytotoxicity at 20 µM [1]: 14.8%
IC50 [2]: > 40 µM
inhibition at 20 µM [3]: 82.5%

IC50 [4]: 11 µM
SMILES: C[C@@H]1C[C@H]2[C@@H]3CCC4=CC(=O)C=C[C@]4(C)[C@@]3(F)[C@@H](O)C[C@]2(C)[C@@]1(O)C(=O)CO [DEXAMETHASONE]
Activity [5]: Active
Activity [6]: Active
IC50 [2]: > 40 µM

IC50 [4]: 6.31 µM
SMILES: C=C1CC[C@H]2C(=C)CC[C@H]3C(CN(CCNS(=O)(=O)c4ccc(C(C)(C)C)cc4)S(=O)(=O)c4ccc(C(C)(C)C)cc4)C(=O)O[C@@H]3[C@@H]12 (stereo not given in full)
cytotoxicity at 20 µM [1]: 9.88%
IC50 [2]: > 40 µM
inhibition at 20 µM [3]: 81.2%

IC50 [4]: 10.2 µM
SMILES: C=C1CC[C@H]2C(=C)CC[C@H]3C(CNCCNCc4cc([N+](=O)[O-])ccc4O)C(=O)O[C@@H]3[C@@H]12 (stereo not given in full)
cytotoxicity at 20 µM [1]: 24.7%
IC50 [2]: > 40 µM
inhibition at 20 µM [3]: 68.4%

IC50 [4]: 12.9 µM
SMILES: C=C1CC[C@H]2C(=C)CC[C@H]3C(CN(CCNS(=O)(=O)c4cc(Cl)c(F)cc4F)S(=O)(=O)c4cc(Cl)c(F)cc4F)C(=O)O[C@@H]3[C@@H]12 (stereo not given in full)
cytotoxicity at 20 µM [1]: 10.4%
IC50 [2]: > 40 µM
inhibition at 20 µM [3]: 68.1%

IC50 [4]: 19.4 µM
SMILES: C=C1CC[C@H]2C(=C)CC[C@H]3C(CNCCNCc4cc(Cl)cc(Cl)c4O)C(=O)O[C@@H]3[C@@H]12 (stereo not given in full)
cytotoxicity at 20 µM [1]: 8.94%
IC50 [2]: > 40 µM
inhibition at 20 µM [3]: 51.5%

IC50 [4]: 4.26 µM
SMILES: C=C1CC[C@H]2C(=C)CC[C@H]3C(CN(CCNS(=O)(=O)c4ccc(OC(F)(F)F)cc4)S(=O)(=O)c4ccc(OC(F)(F)F)cc4)C(=O)O[C@@H]3[C@@H]12 (stereo not given in full)
cytotoxicity at 20 µM [1]: 13.6%
IC50 [2]: > 40 µM
inhibition at 20 µM [3]: 84%

inhibition [21]: Dose-Dependent Effect
inhibition [26]: Dose-Dependent Effect
IC50 [4]: 2.08 µM
inhibition [28]: Dose-Dependent Effect
SMILES: C=C1CC[C@H]2C(=C)CC[C@H]3C(CN(CCNS(=O)(=O)c4ccc(C(F)(F)F)cc4)S(=O)(=O)c4ccc(C(F)(F)F)cc4)C(=O)O[C@@H]3[C@@H]12 (stereo not given in full)
Activity [7]: Active
Activity [8]: Active
cytotoxicity at 20 µM [1]: -6.84%
inhibition [9]: Dose-Dependent Effect
inhibition [10]: inactive
Activity [11]: Active
Activity [12]: Active
inhibition [13]: Active
Activity [14]: Active
inhibition [15]: Dose-Dependent Effect
inhibition [16]: inactive
Activity [17]: Active
Activity [18]: inactive
Activity [19]: Active
Activity [20]: Active
Activity [22]: Active
Activity [23]: Active
inhibition [24]: inactive
IC50 [2]: > 40 µM
Activity [25]: Active
inhibition at 20 µM [3]: 85.1%
inhibition [27]: Active
Activity [29]: Active
